Experimental data from patent publication US20030114383A1, “Calcitonin-like sequence expressed by gonadotropes of the anterior pituitary” (priority 2001, published 2003).
Bridges are numbered along the chain shown (N, C = ends). Where no end group is shown, it is not given here.

B1: Pit-CT: anterior pituitary-derived peptide with sequence homology to calcitonin; mature peptide SEQ. ID No. 3 and No. 4 (protein)
chain: QDQESPLRKHCLAPSGSPQAELQGTAHQEGIMGFLKFSPFLVVSILLLYQACSLQAVPLRSILGSSPGMATLSEEVRLLAAALVQDYMGMKPRELEQEEEQEAEGSSLDSPRSKRCGNLTTCMLGTYTQDLDLFHTFPQTSIGVEALGGEKGCGQGLGDLPPIPFWQLSSSFSPF
modifications: left off: small tags and cut ends

What was measured:
lactotrope = conditions: rats; cited from earlier work
perifused rat AP cells = conditions: exogenously added; cited from earlier work
GGH3 cells = test: Two-tier co-culture of CT transfectants with GGH3 cells: PRL release by RIA; assay type: cell-based, rat; conditions: summary statement
Method: Levels of CTI and PRL in the conditioned media of LβT2 cells and CT-transfectants were determined by radioimmunoassay (RIA). The PRL RIA used the reagents provided by the National Institute of Diabetes, Digestive and Kidney diseases (NIDDK), and the assay protocol recommended by the NIDDK was followed. CTI was determined as described previously. All samples from this series of experiments were concurrently run in duplicate in the same RIA. Protein A (IgG Sorb) was used for the separation of bound from free hormone antigen. The experiments were repeated at least three separate times, and data from all the experiments were pooled for statistical analysis.
To further examine the role of pituitary-derived CT in lactotrope function, a two-tier co-culture system was developed where b 1×10^5 LβT2 cells or CT transfectants (CT.U6/A or CT.U6/B) are cultured separately in an upper chamber insert, whereas 2×10^5 GGH3 cells per well (target cells) are cultured in a 12-well plate. […] The conditioned media were analyzed for PRL by RIA. […]
The results on PRL release are expressed as ng PRL released by 100,000 cells over 24 hours. The results on PRL mRNA were digitized, normalized with β-actin mRNA and expressed as normalized densitometric units. […]

| Molecule | Inhibition of PRL gene transcription and lactotrope cell proliferation (lactotrope) | PRL release from perifused rat AP cells (perifused rat AP cells) | Secretion of GH, FSH, LH or TSH from perifused rat AP cells (perifused rat AP cells) | Inhibition of prolactin secretion by the pituitary of rats (GGH3 cells) |
| --- | --- | --- | --- | --- |
| salmon calcitonin (CSNLSTCVLGKLSQELHKLQTYPRTNTGSGTP-NH2; disulfide 1-7) [SCT, calcitonin-like peptide derived from salmon] | potent inhibitor | significantly attenuates | without altering | – |
| B1 | – | – | – | very potent inhibitor |
